Assay results: US20250295646A1, “METHODS OF USE OF T-TYPE CALCIUM CHANNEL MODULATORS” (Praxis Precision Medicines, Inc., priority 2022, published 2025)

System: adult patients with essential tremor
Assay: Example 16: accelerometer-based (Kinesia ONE) TETRAS upper limb score
Format: in vivo, human
Description: Accelerometer (Kinesia ONE) TETRAS assessments were generally consistent with those conducted at the clinic. Accelerometer upper limb score values are summarized for Part A, the open-label titration phase of Part B, and the randomized withdrawal phase of Part B in Table 37, Table 38, and Table 39, respectively

[1] = Day 1, Post - dose, Part B, Formula (I) arm (N = 4), baseline upper limb score ≥10
[2] = Day 7, Part B, Formula (I) arm (N = 4), baseline upper limb score ≥10
[3] = Day 21, Part B, Formula (I) arm (N = 4), baseline upper limb score ≥10
[4] = Day 42, Post - dose, Part B, Formula (I) arm (N = 4), baseline upper limb score ≥10
[5] = Day 42, Pre - dose, Part B, Formula (I) arm (N = 4), baseline upper limb score ≥10
[6] = Day 42 Post - dose (Randomization Baseline), Part B, Formula (I) arm (N = 4), baseline upper limb score ≥10
[7] = Day 56, Part B, Formula (I) arm (N = 4), baseline upper limb score ≥10
[8] = Day 56, Part B, baseline upper limb score ≥10
[9] = Day 70, Part B, Formula (I) arm (N = 4), baseline upper limb score ≥10
[10] = Day 70, Part B, baseline upper limb score ≥10
[11] = Part A (N = 7), Day 1, Post - dose
[12] = Part B Open-Label Titration (N = 17), Day 1, Post - dose
[13] = Part B Open-Label Titration (N = 17), Day 7
[14] = Part B Open-Label Titration (N = 17), Day 21

CC(C)(C)NC(=O)CN1CCC(CNC(=O)c2cc(F)cc(Cl)c2)CC1 [compound of formula (I), N-((1-(2-(tert-butylamino)-2-oxoethyl)piperidin-4-yl)methyl)-3-chloro-5-fluorobenzamide]
Accelerometer-Based Upper Limb Score, Change from Baseline, Mean (SD) [1]: −0.45 (1.476) | Accelerometer-Based Upper Limb Score, Change from Baseline, Median [1]: −0.83 | Accelerometer-Based Upper Limb Score, Mean (SD) [1]: 10.46 (2.611) | Accelerometer-Based Upper Limb Score, Median [1]: 11.50 | Accelerometer-Based Upper Limb Score, Percentage Change from Baseline in Tremor Amplitude, Mean (SD) [1]: −7.70 (24.390) % | Accelerometer-Based Upper Limb Score, Percentage Change from Baseline in Tremor Amplitude, Median [1]: −14.36% | Accelerometer-Based Upper Limb Score, Change from Baseline, Mean (SD) [2]: −1.48 (0.814) | Accelerometer-Based Upper Limb Score, Change from Baseline, Median [2]: −1.85 | Accelerometer-Based Upper Limb Score, Mean (SD) [2]: 9.67 (3.386) | Accelerometer-Based Upper Limb Score, Median [2]: 11.10 | Accelerometer-Based Upper Limb Score, Percentage Change from Baseline in Tremor Amplitude, Mean (SD) [2]: −24.14 (12.303) % | Accelerometer-Based Upper Limb Score, Percentage Change from Baseline in Tremor Amplitude, Median [2]: −29.88% | Accelerometer-Based Upper Limb Score, Change from Baseline, Mean (SD) [3]: −0.56 (1.181) | Accelerometer-Based Upper Limb Score, Change from Baseline, Median [3]: −0.55 | Accelerometer-Based Upper Limb Score, Mean (SD) [3]: 10.35 (3.035) | Accelerometer-Based Upper Limb Score, Median [3]: 11.48 | Accelerometer-Based Upper Limb Score, Percentage Change from Baseline in Tremor Amplitude, Mean (SD) [3]: −9.09 (19.622) % | Accelerometer-Based Upper Limb Score, Percentage Change from Baseline in Tremor Amplitude, Median [3]: −9.68% | Accelerometer-Based Upper Limb Score, Change from Baseline, Mean (SD) [4]: −0.46 (1.605) | Accelerometer-Based Upper Limb Score, Change from Baseline, Median [4]: −0.23 | Accelerometer-Based Upper Limb Score, Percentage Change from Baseline in Tremor Amplitude, Mean (SD) [4]: −6.66 (25.539) % | Accelerometer-Based Upper Limb Score, Percentage Change from Baseline in Tremor Amplitude, Median [4]: −3.87% | Accelerometer-Based Upper Limb Score, Change from Baseline, Mean (SD) [5]: 0.02 (1.702) | Accelerometer-Based Upper Limb Score, Change from Baseline, Median [5]: 0.05 | Accelerometer-Based Upper Limb Score, Mean (SD) [5]: 10.94 (0.884) | Accelerometer-Based Upper Limb Score, Median [5]: 11.23 | Accelerometer-Based Upper Limb Score, Percentage Change from Baseline in Tremor Amplitude, Mean (SD) [5]: 0.39 (28.120) % | Accelerometer-Based Upper Limb Score, Percentage Change from Baseline in Tremor Amplitude, Median [5]: 0.78% | Accelerometer-Based Upper Limb Score, Mean (SD) [6]: 10.45 (1.616) | Accelerometer-Based Upper Limb Score, Median [6]: 10.88 | Accelerometer-Based Upper Limb Score, Change from Baseline, Mean (SD) [7]: −0.35 (3.213) | Accelerometer-Based Upper Limb Score, Change from Baseline, Median [7]: 0.62 | Accelerometer-Based Upper Limb Score, Change from Randomization, LS Mean (SE) [7]: 0.071 (1.3594) | Accelerometer-Based Upper Limb Score, Change from Randomization, Mean (SD) [7]: 0.11 (1.662) | Accelerometer-Based Upper Limb Score, Change from Randomization, Median [7]: 0.70 | Accelerometer-Based Upper Limb Score, LS Mean Percentage Change in Tremor Amplitude from Randomization [7]: 1.4% | Accelerometer-Based Upper Limb Score, Mean (SD) [7]: 10.56 (2.093) | Accelerometer-Based Upper Limb Score, Median [7]: 10.88 | Accelerometer-Based Upper Limb Score, Percentage Change from Baseline in Tremor Amplitude, Mean (SD) [7]: −1.64 (43.539) % | Accelerometer-Based Upper Limb Score, Percentage Change from Baseline in Tremor Amplitude, Median [7]: 9.78% | Accelerometer-Based Upper Limb Score, Percentage Change from Randomization in Tremor Amplitude, Mean (SD) [7]: 2.97 (26.670) % | Accelerometer-Based Upper Limb Score, Percentage Change from Randomization in Tremor Amplitude, Median [7]: 12.37% | Accelerometer-Based Upper Limb Score, Change from Randomization, LS Mean (SE) for Difference (Formula (I) - Placebo) [8]: −2.321 (1.8339) | Accelerometer-Based Upper Limb Score, Change from Randomization, p-value for LS Mean Difference (Formula (I) - Placebo) [8]: 0.2614 | Accelerometer-Based Upper Limb Score, LS Mean Percentage Change Difference (Formula (I) - Placebo) [8]: −35.5% | Accelerometer-Based Upper Limb Score, Change from Baseline, Mean (SD) [9]: 2.02 (3.694) | Accelerometer-Based Upper Limb Score, Change from Baseline, Median [9]: 0.35 | Accelerometer-Based Upper Limb Score, Change from Randomization, LS Mean (SE) [9]: 3.223 (1.4066) | Accelerometer-Based Upper Limb Score, Change from Randomization, Mean (SD) [9]: 3.02 (2.533) | Accelerometer-Based Upper Limb Score, Change from Randomization, Median [9]: 2.00 | Accelerometer-Based Upper Limb Score, LS Mean Percentage Change in Tremor Amplitude from Randomization [9]: 46.1% | Accelerometer-Based Upper Limb Score, Mean (SD) [9]: 13.17 (0.862) | Accelerometer-Based Upper Limb Score, Median [9]: 13.00 | Accelerometer-Based Upper Limb Score, Percentage Change from Baseline in Tremor Amplitude, Mean (SD) [9]: 22.11 (42.165) % | Accelerometer-Based Upper Limb Score, Percentage Change from Baseline in Tremor Amplitude, Median [9]: 6.50% | Accelerometer-Based Upper Limb Score, Percentage Change from Randomization in Tremor Amplitude, Mean (SD) [9]: 39.81 (24.948) % | Accelerometer-Based Upper Limb Score, Percentage Change from Randomization in Tremor Amplitude, Median [9]: 31.87% | Accelerometer-Based Upper Limb Score, Change from Randomization, LS Mean (SE) for Difference (Formula (I) - Placebo) [10]: 0.341 (1.8367) | Accelerometer-Based Upper Limb Score, Change from Randomization, p-value for LS Mean Difference (Formula (I) - Placebo) [10]: 0.8597 | Accelerometer-Based Upper Limb Score, LS Mean Percentage Change Difference (Formula (I) - Placebo) [10]: 3.6% | Accelerometer-Based Upper Limb Score, Change from Baseline, Median [11]: 0.20 | Accelerometer-Based Upper Limb Score, observed, Median [11]: 9.40 | Accelerometer-based Upper Limb Score, Change from Baseline, LS Mean [11]: 0.417 | Accelerometer-based Upper Limb Score, Change from Baseline, Mean [11]: 0.42 | Accelerometer-based Upper Limb Score, observed, Mean [11]: 10.93 | LS Mean Percentage Change in Tremor Amplitude [11]: 7.7% | Percentage Change from Baseline in Tremor Amplitude, Mean [11]: 7.49% | Percentage Change from Baseline in Tremor Amplitude, Median [11]: 3.76% | Accelerometer-Based Upper Limb Score, Change from Baseline, Median (Part A (N = 7), Day 7): −0.40 | Accelerometer-Based Upper Limb Score, observed, Median (Part A (N = 7), Day 7): 10.38 | Accelerometer-based Upper Limb Score, Change from Baseline, LS Mean (Part A (N = 7), Day 7): −1.100 | Accelerometer-based Upper Limb Score, Change from Baseline, Mean (Part A (N = 7), Day 7): −1.10 | Accelerometer-based Upper Limb Score, observed, Mean (Part A (N = 7), Day 7): 9.31 | LS Mean Percentage Change in Tremor Amplitude (Part A (N = 7), Day 7): −19.0% | Percentage Change from Baseline in Tremor Amplitude, Mean (Part A (N = 7), Day 7): −15.89% | Percentage Change from Baseline in Tremor Amplitude, Median (Part A (N = 7), Day 7): −7.39% | Accelerometer-Based Upper Limb Score, Change from Baseline, Median (Part A (N = 7), Day 14): −1.15 | Accelerometer-Based Upper Limb Score, observed, Median (Part A (N = 7), Day 14): 8.30 | Accelerometer-based Upper Limb Score, Change from Baseline, LS Mean (Part A (N = 7), Day 14): −1.300 | Accelerometer-based Upper Limb Score, Change from Baseline, Mean (Part A (N = 7), Day 14): −1.30 | Accelerometer-based Upper Limb Score, observed, Mean (Part A (N = 7), Day 14): 8.23 | LS Mean Percentage Change in Tremor Amplitude (Part A (N = 7), Day 14): −22.1% | Percentage Change from Baseline in Tremor Amplitude, Mean (Part A (N = 7), Day 14): −20.27% | Percentage Change from Baseline in Tremor Amplitude, Median (Part A (N = 7), Day 14): −19.80% | Accelerometer-Based Upper Limb Score, Change from Baseline, Median (Part A (N = 7), Day 21): −1.05 | Accelerometer-Based Upper Limb Score, observed, Median (Part A (N = 7), Day 21): 10.98 | Accelerometer-based Upper Limb Score, Change from Baseline, LS Mean (Part A (N = 7), Day 21): −0.117 | Accelerometer-based Upper Limb Score, Change from Baseline, Mean (Part A (N = 7), Day 21): −0.12 | Accelerometer-based Upper Limb Score, observed, Mean (Part A (N = 7), Day 21): 10.11 | LS Mean Percentage Change in Tremor Amplitude (Part A (N = 7), Day 21): −2.2% | Percentage Change from Baseline in Tremor Amplitude, Mean (Part A (N = 7), Day 21): −2.75% | Percentage Change from Baseline in Tremor Amplitude, Median (Part A (N = 7), Day 21): −18.25% | Accelerometer-Based Upper Limb Score, Change from Baseline, LS Mean (SE) [12]: −0.633 (0.3456) | Accelerometer-Based Upper Limb Score, Change from Baseline, Mean (SD) [12]: −0.56 (1.700) | Accelerometer-Based Upper Limb Score, Change from Baseline, Median [12]: −0.60 | Accelerometer-Based Upper Limb Score, observed, Mean (SD) [12]: 9.67 (3.109) | Accelerometer-Based Upper Limb Score, observed, Median [12]: 10.50 | LS Mean Percentage Change in Tremor Amplitude [12]: −11.4% | Percentage Change from Baseline in Tremor Amplitude, Mean (SD) [12]: −8.42 (25.587) % | Percentage Change from Baseline in Tremor Amplitude, Median [12]: −10.87% | Accelerometer-Based Upper Limb Score, Change from Baseline, LS Mean (SE) [13]: −1.235 (0.3722) | Accelerometer-Based Upper Limb Score, Change from Baseline, Mean (SD) [13]: −1.15 (2.151) | Accelerometer-Based Upper Limb Score, Change from Baseline, Median [13]: −1.20 | Accelerometer-Based Upper Limb Score, observed, Mean (SD) [13]: 8.91 (3.335) | Accelerometer-Based Upper Limb Score, observed, Median [13]: 8.85 | LS Mean Percentage Change in Tremor Amplitude [13]: −21.1% | Percentage Change from Baseline in Tremor Amplitude, Mean (SD) [13]: −15.44 (29.596) % | Percentage Change from Baseline in Tremor Amplitude, Median [13]: −19.95% | Accelerometer-Based Upper Limb Score, Change from Baseline, LS Mean (SE) [14]: −1.835 (0.4715) | Accelerometer-Based Upper Limb Score, Change from Baseline, Mean (SD) [14]: −1.57 (2.142) | Accelerometer-Based Upper Limb Score, Change from Baseline, Median [14]: −1.00 | Accelerometer-Based Upper Limb Score, observed, Mean (SD) [14]: 9.09 (2.989) | Accelerometer-Based Upper Limb Score, observed, Median [14]: 8.95 | LS Mean Percentage Change in Tremor Amplitude [14]: −29.7% | Percentage Change from Baseline in Tremor Amplitude, Mean (SD) [14]: −21.20 (27.676) %
